The text below walks through data of patent US20160176924A1, “MODIFIED PEPTIDES AS POTENT INHIBITORS OF THE PSD-95/NMDA RECEPTOR INTERACTION” (priority 2008, published 2016).

The target in one data set is T1, PDZ1 of PSD-95 (Homo sapiens, UniProt P78352).
T1 construct: PSD-95 PDZ1 (residues 61-151); made in house; host or cells: E. coli BL21-DE3 pLysS
Description: FP heterologous competition binding assay. The note with it: for Ki: FP competition, mean ± SEM, NA = no activity/affinity. From the text: (§1) Determined IC50 values may be converted to Ki values.^5 Suitable fluorophores include either 5-FAM or Cy5, which may be coupled to a tripeptide (KSG or CSG) linker attached to the N-terminus of the undecapeptide, to give 5-FAM-NR2B, Cy5-NR2B, 5-FAM-CRIPT and Cy5-CRIPT. The 5-FAM fluorophore may be attached to the undecapeptides by coupling with HATU. The Cy5 fluorophore may be conjugated to the undecapeptides by coupling Cy5-maleimide to the cysteine side chain of the tripeptide sequence CSG attached to the N-terminus of the peptide, as detailed in the Methodology section.
(§2) To measure the affinities between non-fluorescent peptides and PDZ domains, heterologous competition bindings assay were performed. This was done by adding increasing concentrations of peptide to a fixed concentration of Cy5-NR2B, 5-FAM-NR2B, Cy5-CRIPT or 5-FAM-CRIPT (50 nM) and PDZ (20 μM for PDZ1, 3 μM for PDZ2 and 1-2 and 5 μM for PDZ3) in the same TBS buffer and conditions as described above. FP values were then fitted to the general equation: Y=Bottom+(Top−Bottom)/[1[…](10̂^X-logIC50)], where X is the logarithmic value of peptide concentration. Hereby the IC50 value was obtained, which is used to calculate the theoretical competitive inhibition constant, Ki.^5
(§3) A convenient and reliable way to examine interactions between peptide analogues and PDZ domains is by using a fluorescence polarization (FP) assay. The three PDZ domains, PDZ1-3, of PSD-95 were expressed individually as set out above, while PDZ1-2 was also expressed as a tandem construct. […] IC50 values were then converted to Ki values.^5

For a further data set, the target named is T2, PDZ2 of PSD-95 (Homo sapiens, UniProt P78352).
T2 construct: PDZ2 (residues 155-249); made in house; host or cells: E. coli BL21-DE3 pLysS
The experiment in a line: FP heterologous competition binding assay. The settings on record: for Ki: FP competition, mean ± SEM, NA = no activity/affinity.
Text: as §1, §2, §3

A further data set deals with T3, PDZ1-2 tandem of PSD-95 (Homo sapiens, UniProt P78352).
T3 construct: PDZ1-2 (residues 61-249) tandem; made in house; host or cells: E. coli BL21-DE3 pLysS
Description: FP heterologous competition binding assay. The settings on record: mean ± SEM.
Text: as §1, §2, §3

A short description of data set [1]: Human blood plasma stability assay. Type of data set: in vitro ADME. How it is done: In this assay, the half-life (T1/2) of a compound in blood plasma is measured in vitro, whereby its susceptibility to degradation by proteases, peptidases and general plasma contents is quantified.
Compounds of interest were dissolved in human blood plasma (270 μl; 3H Biomedical, Sweden, cat no 1300-1-P50) to a concentration of 0.25 mM (30 μL of 2.5 mM) and incubated at 37° C. Aliquots (30 μl) were removed at various time intervals (0, 5, 10, 20, 40, 80, 160, 320, 960, 1280, 2550, 4560 and 7240 min) and quenched with 60 μL trichloroacetic acid (aq., 5%). The aliquots were vortexed, and incubated for at least 15 min, at 4° C. prior to centrifugation at 18,000 g for 2 min and the supernatant was analyzed by RP-HPLC to quantify the remaining compound (absorbance at 218 nm).

In a further data set the target is T4, PDZ3 of PSD-95 (Homo sapiens, UniProt P78352).
T4 construct: PDZ3 (residues 309-401); made in house; host or cells: E. coli BL21-DE3 pLysS
The experiment in a line: FP heterologous competition binding assay. The settings on record: FP competition; mean ± SEM; NA = no activity/affinity.
Text: as §1, §2, §3

The mark [2] stands for this setting: human, plasma, Blood plasma half life (T1/2).

Numbered stars: 1 amine (or outer) side, 2 acyl side, 3 side chain; on linkers, the order of the positions; unused ones are H or OH. Bridge positions count the residues as written; N and C are the ends. Square brackets hold non-standard residues; d marks the D form. Ends that are not written are not given here. Peptide text beside a SMILES is read from it. I, II: the chains in the order shown. CO(CH2CH2O)9CH2CH2CO = O=C(CCOCCOCCOCCOCCOCCOCCOCCOCCOCCC(=O)[*:2])[*:1]; NMeE = CN[C@@H](CCC(=O)O)C(=O)O

For the molecule SDV, the “fold increase in Ki (loss of affinity) compared to NR2B peptide (1), PDZ1” value with PDZ1 of PSD-95 was over 20 fold. In addition, the “fold increase in Ki (loss of affinity) compared to NR2B peptide (1), PDZ2” value with PDZ2 of PSD-95 is over 30 fold.

As for `CC(C)[C@H](NC(=O)[C@H](C)NC(=O)[C@@H](NC(=O)[C@H](CCC(=O)O)NCCc1ccc(F)c(F)c1)C(C)O)C(=O)O` (some centres unmarked) [Compound 62], the Ki is about 1 µM at PDZ1 of PSD-95 and 1 ± 0.043 µM at PDZ2 of PSD-95.

In the case of `CC[C@H](C)[C@H](NC(=O)CCOCCOCCOCCOCCOCCOCCOCCOCCOCCC(=O)N[C@H](C(=O)N[C@@H](CCC(=O)O)C(=O)N[C@@H](CO)C(=O)N[C@@H](CC(=O)O)C(=O)N[C@H](C(=O)O)C(C)C)[C@@H](C)CC)C(=O)N[C@@H](CCC(=O)O)C(=O)N[C@@H](CO)C(=O)N[C@@H](CC(=O)O)C(=O)N[C@H](C(=O)O)C(C)C` [(IESDV)2PEG8 (76), (IESDV)2PEG8], the results for the Ki at PDZ1-2 tandem of PSD-95 and at PDZ2 of PSD-95 were about 0.1 µM and 2.6 ± 0.13 µM, respectively. Also, in data set [1], the “degradation in human blood plasma, in words” value was “no significant degradation could be detected over a time period of 6 days”. Moreover, the half-life at […] in data set [1] (setting [2]) is over 133 h.

As for `CC(C)[C@H](NC(=O)[C@H](C)NC(=O)[C@@H](NC(=O)[C@H](CCC(=O)O)NCCc1ccc(Cl)c(Cl)c1)C(C)O)C(=O)O` (some centres unmarked) [Compound 61], at PDZ2 of PSD-95, the Ki was found to be 1.1 ± 0.11 µM.

Regarding IESDV-PEG4 [IESDV-PEG4 (91)], in data set [1] (human), the “fold increase in half life compared to non-pegylated peptide 7” value is recorded as “about 10 fold”. Besides, the “Blood plasma half life (T1/2)” value in data set [1] (human, plasma) stood at 10 h.

As to “YGRKKRRQRRRKLSSIESDV [Tat-NR2B (3), reference compound]”, the Ki at PDZ1-2 tandem of PSD-95 is 9.8 ± 0.35 µM.

Consider `CC(C)[C@H](NC(=O)[C@H](C)NC(=O)[C@@H](NC(=O)[C@H](C)N)[C@@H](C)O)C(=O)O` [ATAV (68), ATAV] (H-ATAV-OH; C-terminus assumed), for which the Ki at PDZ3 of PSD-95 was at least 400 µM.

As for `CC[C@H](C)[C@H](NC(=O)CCOCCOCCOCCOCCOCCC(=O)N[C@H](C(=O)N[C@@H](C)C(=O)N[C@H](C(=O)N(C)[C@@H](C)C(=O)N[C@H](C(=O)O)C(C)C)[C@@H](C)O)[C@@H](C)CC)C(=O)N[C@@H](C)C(=O)N[C@H](C(=O)N(C)[C@@H](C)C(=O)N[C@H](C(=O)O)C(C)C)[C@@H](C)O` [(IATAMeV)2PEG4 (90), (IATAMeV)2PEG4], the “degradation in human blood plasma, in words” value in data set [1] is listed as “no significant degradation could be detected over a time period of 6 days”. Also, the half-life in data set [1] (setting [2]) is over 133 h.

Consider `CCCN[C@@H](CCC(=O)O)C(=O)N[C@H](C(=O)N[C@@H](C)C(=O)N[C@H](C(=O)O)C(C)C)[C@@H](C)O` [Compound 53, N-Propyl-ETAV], for which the Ki on PDZ1 of PSD-95 worked out at 7 ± 0.28 µM.

For `CC(C)[C@H](NC(=O)[C@H](CC(=O)O)NC(=O)[C@H](CO)NC(=O)[C@H](CCC(=O)O)NC(=O)CCOCCOCCOCCOCCOCCOCCOCCOCCOCCC(=O)N[C@@H](CCC(=O)O)C(=O)N[C@@H](CO)C(=O)N[C@@H](CC(=O)O)C(=O)N[C@H](C(=O)O)C(C)C)C(=O)O` [Compound 85] (I: ESDV-OH / II: ESDV-OH; linker I:N-II:N via CO(CH2CH2O)9CH2CH2CO; C-terminus assumed), on PDZ1-2 tandem of PSD-95, the Ki is 1 ± 0.05 µM.

Regarding EMeTDV ([NMeE]TDV) [Compound 36], the “fold increase in affinity (more potent) compared to NR2B peptide (1), PDZ1” value with PDZ1 of PSD-95 is “ca. 3 fold”. In addition, in the data set with PDZ2 of PSD-95 (FP assay), the “affinity to PDZ2, in words” value is recorded as “only slightly less potent”.

Turning to `CC(C)[C@H](NC(=O)[C@H](CC(=O)O)NC(=O)[C@H](CO)NC(=O)[C@@H](N)CCC(N)=O)C(=O)O` [Compound 29] (H-QSDV-OH), the half-life at […] in data set [1] (setting [2]) lay within 0.283 to 0.917 h.
